# Test results from PMC10210398, “Genomic, functional and structural analyses elucidate evolutionary innovation within the sea anemone 8 toxin family” (BMC Biology, 2023).
# Entries after “also recorded” stand apart in the source; their conditions may differ. Bridge positions count the residues as written; N and C are the ends. Ends that are not written are not given here.
# How the values were obtained:
# hKV1.1 = type: cell-based, human
# Method: (§1) CHO and human embryonic kidney (HEK 293) cells were grown in DMEM-high glucose supplemented with 10% FBS, 2 mM L-glutamine, 100 U/mL penicillin-g, and 100 μg/mL streptomycin (Invitrogen) at 37 °C in a 5% CO2 and 95% air humidified atmosphere. Cells were passaged twice per week following a 5-min incubation in PBS containing 0.2 g/L EDTA (Invitrogen, Carlsbad, CA).
# (§2) CHO cells (ATCC) were transiently transfected with plasmids encoding hKV1.1, hKV1.2, hKV10.1, hKCa3.1, hTRPA1, or hNaV1.7 using Lipofectamine 2000 (Invitrogen, Carlsbad, CA) following the manufacturer’s protocol, then cultured under standard conditions. The cells were co-transfected with a plasmid encoding green fluorescent protein (GFP) at a molar ratio of 10:1 except for hKV1.1, hKV1.2, and hKCa3.1 for which GFP-tagged ion channel vectors were used. Currents were recorded 24–36 h after transfection. […] HEK 293 cells stably expressing the hKv11.1 channel (hERG, hKCNH2 gene, a kind gift from H. Wulff, University of California, Davis, CA) and mKCa1.1 channel (BKCa, hKCNMA1, a kind gift from C. Beeton, Baylor College of Medicine, Houston, TX) were used. hTRPV1 channels were expressed in a stable manner in CHO cells. Transfected cells were washed twice with 2 mL of ECS (see below) and re-plated onto 35-mm polystyrene cell culture dishes (Cellstar, Greiner Bio-One). hKV1.3 currents were recorded from activated peripheral blood mononuclear cells (PBMCs, see below) 3–4 days after activation. Human veinous blood was obtained from anonymised healthy donors. […]
# (§3) Conventional whole-cell patch-clamp electrophysiology was used to record ionic currents. […] Data were analysed using Prism 8 (GraphPad, CA, USA) and ClampFit 10.5 software (Molecular Devices Inc., Sunnyvale, CA). […] For hKCa3.1, hTRPA1 and hTRPV1, the reversal potential for K^+ was determined and only those currents were analysed for which the reversal potential fell into the range of the theoretical reversal potential ± 5 mV (− 86.5 ± 5 mV for KCa3.1, and 0 ± 5 mV for hTRPA1 and hTRPV1).
# hKV1.2 = biological target: T1, hKV1.2 (Homo sapiens, UniProt P16389); test: Whole-cell patch-clamp, hKV1.2 in transiently transfected CHO cells; type: cell-based; conditions: for RCF_mean (remaining current fraction, I/I0): mean
# T1 construct: GFP; expressed in transfected cells; host or cells: CHO cells (ATCC), transient transfection with Lipofectamine 2000
# T1 sequence (P16389 whole entry): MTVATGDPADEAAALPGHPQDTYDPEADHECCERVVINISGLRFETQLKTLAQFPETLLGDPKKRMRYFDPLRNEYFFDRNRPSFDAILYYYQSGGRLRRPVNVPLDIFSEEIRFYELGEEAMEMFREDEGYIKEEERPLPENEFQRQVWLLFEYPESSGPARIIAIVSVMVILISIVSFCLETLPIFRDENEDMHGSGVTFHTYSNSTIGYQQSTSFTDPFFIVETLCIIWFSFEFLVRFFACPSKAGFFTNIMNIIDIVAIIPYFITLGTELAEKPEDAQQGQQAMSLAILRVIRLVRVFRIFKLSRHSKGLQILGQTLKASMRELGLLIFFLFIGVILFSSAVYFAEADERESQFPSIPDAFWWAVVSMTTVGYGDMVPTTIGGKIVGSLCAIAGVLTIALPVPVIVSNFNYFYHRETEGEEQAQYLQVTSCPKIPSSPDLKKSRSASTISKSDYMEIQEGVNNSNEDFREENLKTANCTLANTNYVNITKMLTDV
# Method: as §1
# (§4) CHO cells (ATCC) were transiently transfected with plasmids encoding hKV1.1, hKV1.2, hKV10.1, hKCa3.1, hTRPA1, or hNaV1.7 using Lipofectamine 2000 (Invitrogen, Carlsbad, CA) following the manufacturer’s protocol, then cultured under standard conditions. The cells were co-transfected with a plasmid encoding green fluorescent protein (GFP) at a molar ratio of 10:1 except for hKV1.1, hKV1.2, and hKCa3.1 for which GFP-tagged ion channel vectors were used. Currents were recorded 24–36 h after transfection. […] HEK 293 cells stably expressing the hKv11.1 channel (hERG, hKCNH2 gene, a kind gift from H. Wulff, University of California, Davis, CA) and mKCa1.1 channel (BKCa, hKCNMA1, a kind gift from C. Beeton, Baylor College of Medicine, Houston, TX) were used. hTRPV1 channels were expressed in a stable manner in CHO cells. Transfected cells were washed twice with 2 mL of ECS (see below) and re-plated onto 35-mm polystyrene cell culture dishes (Cellstar, Greiner Bio-One). hKV1.3 currents were recorded from activated peripheral blood mononuclear cells (PBMCs, see below) 3–4 days after activation. Human veinous blood was obtained from anonymised healthy donors. PBMCs were isolated using Histopaque1077 (Sigma-Aldrich Hungary, Budapest, Hungary) density gradient centrifugation. Cells obtained were resuspended in RPMI 1640 medium containing 10% foetal calf serum (Sigma-Aldrich Hungary, Budapest, Hungary), 100 μg/mL penicillin, 100 μg/mL streptomycin, and 2 mM L-glutamine, seeded in a 24-well culture plate at a density of 5–6 × 10^5 cells/mL, and grown in a 5% CO2 incubator at 37 °C for 3–5 days. Phytohemagglutinin A (PHA, Sigma-Aldrich Hungary, Budapest, Hungary) was added to the medium at 10 μg/mL to amplify the KV1.3 expression. Cells were washed gently twice with 2 mL of ECS for the patch-clamp experiments.
# Conventional whole-cell patch-clamp electrophysiology was used to record ionic currents. Micropipettes were pulled in four stages using a Flaming Brown automatic pipette puller (Sutter Instruments, San Rafael, CA) from Borosilicate Standard Wall with Filament aluminium–silicate glass (Harvard Apparatus Co., Holliston, MA) with tip diameters between 0.5 and 1 μm and heat polished to a tip resistance of 2–8 MΩ. All measurements were carried out by using Axopatch 200B amplifier connected to a personal computer using Axon Digidata 1550A data acquisition hardware (Molecular Devices, Sunnyvale, CA). In general, the holding potential was − 120 mV. Records were discarded when a leak at the holding potential was > 10% of the peak current at the test potential. Series resistance compensation up to 70% was used to minimise voltage errors and achieve proper voltage-clamp conditions. Experiments were performed at room temperature (20–24 °C). Data were analysed using Prism 8 (GraphPad, CA, USA) and ClampFit 10.5 software (Molecular Devices Inc., Sunnyvale, CA). Before analysis, whole-cell current traces were corrected for ohmic leakage and digitally filtered with a three-point boxcar smoothing filter. For hKCa3.1, hTRPA1 and hTRPV1, the reversal potential for K^+ was determined and only those currents were analysed for which the reversal potential fell into the range of the theoretical reversal potential ± 5 mV (− 86.5 ± 5 mV for KCa3.1, and 0 ± 5 mV for hTRPA1 and hTRPV1).
# hKV1.3 = type: cell-based, human
# Method: as §4, with “Phytohemagglutinin A (PHA, Sigma-Aldrich Hungary, Budapest, Hungary) was added to the medium at 10 μg/mL to amplify the KV1.3 expression. Cells were washed gently twice with 2 mL of ECS for the patch-clamp experiments.” left out
# as §3
# hKV10.1 = test: Whole-cell patch-clamp, hKV10.1 in transiently transfected CHO cells; type: cell-based, human
# Method: as §1, §2, §3
# [1] = system: hKV11.1 channel (hERG, hKCNH2 gene); test: Whole-cell patch-clamp, hKV11.1 (hERG) stably expressed in HEK 293 cells; type: cell-based, human
# Method: as §1
# (§5) CHO cells (ATCC) were transiently transfected with plasmids encoding hKV1.1, hKV1.2, hKV10.1, hKCa3.1, hTRPA1, or hNaV1.7 using Lipofectamine 2000 (Invitrogen, Carlsbad, CA) following the manufacturer’s protocol, then cultured under standard conditions. The cells were co-transfected with a plasmid encoding green fluorescent protein (GFP) at a molar ratio of 10:1 except for hKV1.1, hKV1.2, and hKCa3.1 for which GFP-tagged ion channel vectors were used. Currents were recorded 24–36 h after transfection. […] Transfected cells were washed twice with 2 mL of ECS (see below) and re-plated onto 35-mm polystyrene cell culture dishes (Cellstar, Greiner Bio-One). hKV1.3 currents were recorded from activated peripheral blood mononuclear cells (PBMCs, see below) 3–4 days after activation. […]
# (§6) Conventional whole-cell patch-clamp electrophysiology was used to record ionic currents. […] Data were analysed using Prism 8 (GraphPad, CA, USA) and ClampFit 10.5 software (Molecular Devices Inc., Sunnyvale, CA). […]
# mKCa1.1 channel = type: cell-based
# Method: as §1, §2, §3
# hKCa3.1 = test: Whole-cell patch-clamp, hKCa3.1 in transiently transfected CHO cells; type: cell-based, human
# Method: as §1, §5, §6
# hTRPA1 = test: Whole-cell patch-clamp, hTRPA1 in transiently transfected CHO cells; type: cell-based, human
# Method: as §1, §5, §6
# hTRPV1 = test: Whole-cell patch-clamp, hTRPV1 stably expressed in CHO cells; type: cell-based, human
# Method: as §1, §5, §6
# hNaV1.7 = test: Whole-cell patch-clamp, hNaV1.7 in transiently transfected CHO cells; type: cell-based, human
# Method: as §1, §5, §6
sequence,measurement,setting,value
"GYGKGRPGCYNHYDESICGGVIKDEHCKAGRGSRMGKFALKNCQFQCGLC (disulfide 9-47, 18-50, 27-43) [SA8]","RCF_mean (remaining current fraction, I/I0)","hKV1.1; Kv1.1, 100 nM SA8, mean, n = 4, SEM 0.0202631",1.029
same,"effect on current, in words","hKV1.1; hKV1.1, CHO cells, 100 nM SA8",no effect; also recorded: did not inhibit
same,association and dissociation rates,"hKV1.2; 100 nM SA8, hKV1.2",rapid
same,reversibility of block upon washing,"hKV1.2; 100 nM SA8, hKV1.2, inhibitor-free solution",almost fully reversible
same,time for development of equilibrium block and recovery,"hKV1.2; 100 nM SA8, hKV1.2, recovery up to ~ 85% of control current",~ 1 min
same,IC50,"hKV1.2; 0.01, 0.1, 1 and 10 µM SA8, linear least squares fit Y = 1 + slope × [toxin], n = 4, room temperature (20–24 °C), ECS pH 7.35, 0.1 mg/mL BSA, CHO cells",40.8 ± 4.9 µM
same,"RCF_mean (remaining current fraction, I/I0)","hKV1.2; Kv1.2, 10 nM SA8, n = 5, SEM 0.00976051",0.9869
same,"RCF_mean (remaining current fraction, I/I0)","hKV1.2; Kv1.2, 100 nM SA8, n = 4, SEM 0.0156624",0.9412
same,"RCF_mean (remaining current fraction, I/I0)","hKV1.2; Kv1.2, 1000 nM SA8, n = 4, SEM 0.0249691",0.9151
same,"RCF_mean (remaining current fraction, I/I0)","hKV1.2; Kv1.2, 10000 nM SA8, n = 6, SEM 0.0222303",0.772
same,recovery of current upon washing (of control current),"hKV1.2; after 100 nM SA8, hKV1.2, inhibitor-free solution",~ 85%
same,"effect on current, in words","hKV1.2; hKV1.2, CHO cells, 100 nM",weak block; also recorded: modest block; also recorded: weak inhibition
same,"RCF_mean (remaining current fraction, I/I0)","hKV1.3; Kv1.3, 100 nM SA8, mean, n = 3, SEM 0.00826878",1.03
same,"effect on current, in words","hKV1.3; hKV1.3, activated PBMCs, 100 nM SA8",no effect; also recorded: did not inhibit
same,"RCF_mean (remaining current fraction, I/I0)","hKV10.1; Kv10.1, 1000 nM SA8, mean, n = 4, SEM 0.00577385",0.9796
same,"effect on current, in words","hKV10.1; hKV10.1, CHO cells, 1 µM SA8",no effect; also recorded: did not inhibit
same,"RCF_mean (remaining current fraction, I/I0)","[1]; Kv11.1, 100 nM SA8, mean, n = 5, SEM 0.0157239",1.029
same,"effect on current, in words","[1]; hKV11.1 (hERG), HEK 293, 100 nM SA8",no effect; also recorded: did not inhibit
same,"RCF_mean (remaining current fraction, I/I0)","mKCa1.1 channel; KCa1.1, 100 nM SA8, mean, n = 4, SEM 0.0158455",1.052
same,"effect on current, in words","mKCa1.1 channel; mKCa1.1, HEK 293, 100 nM SA8",no effect; also recorded: did not inhibit
same,"RCF_mean (remaining current fraction, I/I0)","hKCa3.1; KCa3.1, 100 nM SA8, mean, n = 6, SEM 0.0170688",0.9712
same,"effect on current, in words","hKCa3.1; hKCa3.1, CHO cells, 100 nM SA8",no effect; also recorded: did not inhibit
same,"RCF_mean (remaining current fraction, I/I0)","hTRPA1; TRPA1, 100 nM SA8, mean, n = 5, SEM 0.0123957",0.9628
same,"effect on current, in words","hTRPA1; hTRPA1, CHO cells, activated by 100 µM AITC, 100 nM SA8",no effect; also recorded: did not inhibit
same,"RCF_mean (remaining current fraction, I/I0)","hTRPV1; TRPV1, 100 nM SA8, mean, n = 5, SEM 0.0111172",0.9606
same,"effect on current, in words","hTRPV1; hTRPV1, CHO cells, activated by 1 µM capsaicin, 100 nM SA8",no effect; also recorded: did not inhibit
same,"RCF_mean (remaining current fraction, I/I0)","hNaV1.7; Nav1.7, 1000 nM SA8, mean, n = 5, SEM 0.022988",1.02
same,"effect on current, in words","hNaV1.7; hNaV1.7, CHO cells, 1 µM SA8",no effect; also recorded: did not inhibit
